The nature of the assay: Test 1: Oxidation of 2,2,6,6-tetramethylpiperidine (TEMP), EPR detection of TEMPO. The note with it: porphyrin compound at 0.5 μM, 50 mM TEMP, phosphate buffer pH 7.4, oxygen-saturated, daylight, 1 hour. As to the method:
The oxidizing agent used in this test is dissolved oxygen. A solution comprising a phosphate buffer (pH 7.4), 50 mM of the compound 2,2,6,6-tetramethylpiperidine (TEMP) and a porphyrin compound at 0.5 μM is prepared. The solution is saturated with oxygen. The solution is placed in daylight. After 1 hour, electron paramagnetic resonance (EPR) spectrometry of the oxidized form of the compound 2,2,6,6-tetramethylpiperidine (TEMP), which corresponds to the compound […], known as TEMPO, is performed. In accordance with the scientific publication Lion et al., 1976; Moan and Wold, 1979, the presence of the compound in TEMPO form is indicative of the oxidation produced by oxygen on the compound 2,2,6,6-tetramethylpiperidine and thus of the catalytic effect of the porphyrin compound. […] With a porphyrin compound according to the invention, the appearance of the TEMPO compound is observed after 1 hour of placing in contact.

Turning to copper chlorophyllin, the “catalytic oxidation activity: formation of the TEMPO compound from TEMP (test 1)” value is on record as “does not lead to the formation of the TEMPO compound”.

Source of the values: patent publication US9326931B2, “Use of porphyrin-type catalytic oxidation compounds as an anti-dandruff agent” (L'OREAL, priority 2012, dated 2016).
